Measured values: patent US20160194299A1 (priority 2013, published 2016)
In brackets after ≈: the same amount, converted by molar mass. Like-named read-outs stand apart in the source and are kept apart here.

How the values were obtained:
in vitro [1] = settings: human
Mtb [2] = assay: microbe, parasite or virus in culture; assay type: cell-based, Mycobacterium tuberculosis; settings: Mycobacterium tuberculosis, read-out: MIC (II)
Mtb [3] = assay: microbe, parasite or virus in culture; assay type: cell-based, Mycobacterium tuberculosis; settings: for MIC: Mycobacterium tuberculosis, read-out: MIC (III)
Mtb [4] = assay: microbe, parasite or virus in culture; assay type: cell-based, Mycobacterium tuberculosis; settings: for MIC: Mycobacterium tuberculosis, read-out: MIC (I)
in vitro [5] = settings: African green monkey
[6] = test system: Mtb in J744.1 murine macrophage cells; assay: microbe, parasite or virus in culture; assay type: cell-based; settings: Mycobacterium tuberculosis, 120 h, read-out: MIC50, intracellular CFU assay
[7] = test system: exponentially growing virulent Mtb; assay type: cell-based, Mycobacterium tuberculosis
[8] = molecular target: M. smegmatis DprE1 (DprE1/DprE2 epimerase) (Mycolicibacterium smegmatis, UniProt A0R607); assay type: biochemical
M. smegmatis DprE1 (DprE1/DprE2 epimerase), sequence (A0R607 whole entry): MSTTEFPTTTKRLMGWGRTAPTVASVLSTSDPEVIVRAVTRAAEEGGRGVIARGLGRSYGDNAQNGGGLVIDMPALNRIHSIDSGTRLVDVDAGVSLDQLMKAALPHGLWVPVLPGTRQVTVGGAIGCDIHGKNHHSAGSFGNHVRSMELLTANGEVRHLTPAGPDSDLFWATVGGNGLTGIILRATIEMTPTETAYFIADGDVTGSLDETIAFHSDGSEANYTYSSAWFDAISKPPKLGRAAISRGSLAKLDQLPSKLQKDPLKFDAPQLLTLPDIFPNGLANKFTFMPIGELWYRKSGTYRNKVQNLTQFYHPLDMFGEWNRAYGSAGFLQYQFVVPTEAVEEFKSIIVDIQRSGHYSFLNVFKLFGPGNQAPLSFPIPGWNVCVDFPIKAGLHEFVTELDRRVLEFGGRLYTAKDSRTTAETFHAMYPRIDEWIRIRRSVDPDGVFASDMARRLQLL

| SMILES | CC50 (in vitro [1]) [mg/L] | MIC (Mtb [2]) [mg/L] | LC50 (IV) (Vero cells) | MIC (III) (Mtb [3]) | MIC (I) (Mtb [4]) | further results |
| --- | --- | --- | --- | --- | --- | --- |
| CCOC(=O)NC(=O)c1ccsc1NC(=O)c1ccnc(-n2cnnn2)c1 [Compound 12] | > 50 | 1 to 3 (≈ 2.58 to 7.74 µM) | – | – | – | – |
| CCOC(=O)NC(=O)c1ccsc1NC(=O)c1n[nH]c2cc(C)ccc12 [Compound 120] | – | – | A (key: A: >50 μg/mL; B: 50-25 μg/mL; C: <25 μg/mL) | C (key: A: <5 μg/mL; B: 5-25 μg/mL; C: >25 μg/mL) | C (key: A: <1 μg/mL; B: 1-3 μg/mL; C: >3 μg/mL) | – |
| CC(C)OC(=O)NC(=O)c1ccsc1NC(=O)c1ccc2[nH]nnc2c1 [Compound 364] | – | – | B (key: A: >50 μg/mL; B: 50-25 μg/mL; C: <25 μg/mL) | C (key: A: <5 μg/mL; B: 5-25 μg/mL; C: >25 μg/mL) | B (key: A: <1 μg/mL; B: 1-3 μg/mL; C: >3 μg/mL) | – |
| CCOC(=O)NC(=O)c1ccsc1NC(=O)c1cccc(NC(C)=O)c1 [Compound 3] | > 50 | 1 to 3 (≈ 2.66 to 7.99 µM) | – | – | – | – |
| CC(C)OC(=O)NC(=O)c1ccsc1NC(=O)c1n[nH]c2ncccc12 [Compound 359] | – | – | B (key: A: >50 μg/mL; B: 50-25 μg/mL; C: <25 μg/mL) | C (key: A: <5 μg/mL; B: 5-25 μg/mL; C: >25 μg/mL) | C (key: A: <1 μg/mL; B: 1-3 μg/mL; C: >3 μg/mL) | – |
| CCOC(=O)NC(=O)c1ccsc1NC(=O)c1n[nH]c2cc(C#N)ccc12 [Compound 128] | – | – | A (key: A: >50 μg/mL; B: 50-25 μg/mL; C: <25 μg/mL) | C (key: A: <5 μg/mL; B: 5-25 μg/mL; C: >25 μg/mL) | C (key: A: <1 μg/mL; B: 1-3 μg/mL; C: >3 μg/mL) | – |
| CCOC(=O)NC(=O)c1ccsc1NC(=O)c1nc2ccccc2s1 [Compound 1] | > 50 | 1 to 3 (≈ 2.66 to 7.99 µM) | – | – | – | MIC (Mtb [3]): > 25 mg/L; MIC (Mtb [4]): 1 to 3 mg/L (≈ 2.66 to 7.99 µM); CC50 (in vitro [5]): > 50 mg/L |
| CCOC(=O)NC(=O)c1ccsc1NC(=O)c1ccnc(NC(C)=O)c1 [Compound 13] | > 50 | < 1 | – | – | – | – |
| O=C(Nc1sccc1C(=O)N1CCSCC1)c1nc2ccccc2s1 [Compound 261] | – | – | A (key: A: >50 μg/mL; B: 50-25 μg/mL; C: <25 μg/mL) | C (key: A: <5 μg/mL; B: 5-25 μg/mL; C: >25 μg/mL) | C (key: A: <1 μg/mL; B: 1-3 μg/mL; C: >3 μg/mL) | – |
| CO[C@H]1/C=C/O[C@@]2(C)Oc3c(C)c(O)c4c(O)c(c(/C=N/N5CCN(C)CC5)c(O)c4c3C2=O)NC(=O)/C(C)=C\C=C\[C@H](C)[C@H](O)[C@@H](C)[C@@H](O)[C@@H](C)[C@H](OC(C)=O)[C@@H]1C [RIF, rifampicin] | – | – | – | – | – | MIC50 [6]: 2.7 mg/L (≈ 3.28 µM) |
| NNC(=O)c1ccncc1 [INH, isoniazid] | – | – | – | – | – | drop in CFU compared with TCA1 [7]: comparable drop in CFU over the first seven days; MIC50 [6]: 0.2 mg/L (≈ 1.46 µM) |
| CC(C)OC(=O)NC(=O)c1ccsc1NC(=O)c1ccc2[nH]ncc2c1 [Compound 351] | – | – | B (key: A: >50 μg/mL; B: 50-25 μg/mL; C: <25 μg/mL) | C (key: A: <5 μg/mL; B: 5-25 μg/mL; C: >25 μg/mL) | C (key: A: <1 μg/mL; B: 1-3 μg/mL; C: >3 μg/mL) | – |
| CCOC(=O)NC(=O)c1ccsc1NC(=O)c1nc2ccc(NC(=O)CNC(=O)OC(C)(C)C)cc2s1 [Compound 392] | – | – | B (key: A: >50 μg/mL; B: 50-25 μg/mL; C: <25 μg/mL) | C (key: A: <5 μg/mL; B: 5-25 μg/mL; C: >25 μg/mL) | B (key: A: <1 μg/mL; B: 1-3 μg/mL; C: >3 μg/mL) | – |
| CCOC(=O)NC(=O)c1ccsc1NC(=O)c1cc2ccccn2n1 [Compound 11] | > 50 | 1 to 3 (≈ 2.79 to 8.37 µM) | – | – | – | – |
| CN1CCC(NC(=O)c2ccsc2NC(=O)c2nc3ccccc3s2)CC1 [Compound 255] | – | – | A (key: A: >50 μg/mL; B: 50-25 μg/mL; C: <25 μg/mL) | C (key: A: <5 μg/mL; B: 5-25 μg/mL; C: >25 μg/mL) | C (key: A: <1 μg/mL; B: 1-3 μg/mL; C: >3 μg/mL) | – |
| CCOC(=O)NC(=O)c1ccsc1NC(=O)c1n[nH]c2ncccc12 [Compound 358] | – | – | B (key: A: >50 μg/mL; B: 50-25 μg/mL; C: <25 μg/mL) | C (key: A: <5 μg/mL; B: 5-25 μg/mL; C: >25 μg/mL) | C (key: A: <1 μg/mL; B: 1-3 μg/mL; C: >3 μg/mL) | – |
| CCOC(=O)NC(=O)c1ccsc1NC(=O)c1n[nH]c2cc(Cl)ccc12 [Compound 134] | – | – | A (key: A: >50 μg/mL; B: 50-25 μg/mL; C: <25 μg/mL) | C (key: A: <5 μg/mL; B: 5-25 μg/mL; C: >25 μg/mL) | C (key: A: <1 μg/mL; B: 1-3 μg/mL; C: >3 μg/mL) | – |

| SMILES | CC50 (in vitro [1]) [mg/L] | MIC (Mtb [2]) [mg/L] | LC50 (IV) (Vero cells) | MIC (III) (Mtb [3]) | MIC (I) (Mtb [4]) | further results |
| --- | --- | --- | --- | --- | --- | --- |
| CCOC(=O)NC(=O)c1ccsc1NC(=O)c1nc2ccc(Cl)cc2[nH]1 [Compound 72] | > 50 | > 3 | – | – | – | MIC (Mtb [3]): 5 to 25 mg/L (≈ 12.7 to 63.6 µM); MIC (Mtb [4]): 1 to 3 mg/L (≈ 2.55 to 7.64 µM); CC50 (in vitro [5]): > 50 mg/L |
| CCOC(=O)NC(=O)c1ccsc1NC(=O)c1ccc2[nH]nnc2c1 [Compound 363] | – | – | B (key: A: >50 μg/mL; B: 50-25 μg/mL; C: <25 μg/mL) | C (key: A: <5 μg/mL; B: 5-25 μg/mL; C: >25 μg/mL) | C (key: A: <1 μg/mL; B: 1-3 μg/mL; C: >3 μg/mL) | – |
| CCOC(=O)NC(=O)c1ccsc1NC(=O)c1nc2cc(Cl)ccc2s1 [Compound 52] | > 50 | < 1 | – | – | – | – |
| CCOC(=O)NC(=O)c1ccsc1NC(=O)c1ccnc(NC(=O)OC(C)C)c1 [Compound 4] | > 50 | 1 to 3 (≈ 2.38 to 7.14 µM) | – | – | – | – |
| CCOC(=O)NC(=O)c1ccsc1NC(=O)c1cn2ccccc2n1 [Compound 76] | > 50 | > 3 | – | – | – | MIC (Mtb [3]): < 5 mg/L; MIC (Mtb [4]): 1 to 3 mg/L (≈ 2.79 to 8.37 µM); CC50 (in vitro [5]): > 50 mg/L |
| CCOC(=O)NC(=O)c1ccsc1NC(=O)c1nc(=O)[nH]c2ccccc12 [Compound 141] | – | – | A (key: A: >50 μg/mL; B: 50-25 μg/mL; C: <25 μg/mL) | C (key: A: <5 μg/mL; B: 5-25 μg/mL; C: >25 μg/mL) | C (key: A: <1 μg/mL; B: 1-3 μg/mL; C: >3 μg/mL) | – |
| CCOC(=O)NC(=O)c1ccsc1NC(=O)c1nc2cc(F)ccc2s1 [Compound 53] | 25 to 50 (≈ 63.5 to 127 µM) | < 1 | – | – | – | MIC (Mtb [4]): < 1 mg/L; CC50 (in vitro [5]): < 25 mg/L |
| O=C(NC(=O)c1ccsc1NC(=O)c1nc2cnccc2s1)OC(c1ccccc1)C(F)(F)F (stereo not shown) [Compound 304] | – | – | B (key: A: >50 μg/mL; B: 50-25 μg/mL; C: <25 μg/mL) | C (key: A: <5 μg/mL; B: 5-25 μg/mL; C: >25 μg/mL) | B (key: A: <1 μg/mL; B: 1-3 μg/mL; C: >3 μg/mL) | – |
| CCOC(=O)NC(=O)c1ccsc1NC(=O)c1ccnc(NC(=O)OC)c1 [Compound 61] | 25 to 50 (≈ 63.7 to 127 µM) | < 1 | – | – | – | MIC (Mtb [3]): 5 to 25 mg/L (≈ 12.7 to 63.7 µM); MIC (Mtb [4]): 1 to 3 mg/L (≈ 2.55 to 7.65 µM); CC50 (in vitro [5]): > 50 mg/L |
| CCOC(=O)NC(=O)c1ccsc1NC(=O)c1ccc2[nH]ncc2c1 [Compound 350] | – | – | B (key: A: >50 μg/mL; B: 50-25 μg/mL; C: <25 μg/mL) | C (key: A: <5 μg/mL; B: 5-25 μg/mL; C: >25 μg/mL) | C (key: A: <1 μg/mL; B: 1-3 μg/mL; C: >3 μg/mL) | – |
| O=C(NC(=O)c1ccsc1NC(=O)c1cn2ccccc2n1)OC1CCCC1 [Compound 348] | – | – | B (key: A: >50 μg/mL; B: 50-25 μg/mL; C: <25 μg/mL) | C (key: A: <5 μg/mL; B: 5-25 μg/mL; C: >25 μg/mL) | C (key: A: <1 μg/mL; B: 1-3 μg/mL; C: >3 μg/mL) | – |
| CCOC(=O)NC(=O)c1ccsc1NC(=O)c1ccc2sc(C)nc2c1 [Compound 10] | > 50 | < 1 | – | – | – | MIC (Mtb [4]): < 1 mg/L; CC50 (in vitro [5]): 25 to 50 mg/L (≈ 64.2 to 128 µM) |
| O=C(Nc1sccc1C(=O)NC(=O)N1CCOCC1)c1nc2ccccc2s1 [Compound 385] | – | – | C (key: A: >50 μg/mL; B: 50-25 μg/mL; C: <25 μg/mL) | C (key: A: <5 μg/mL; B: 5-25 μg/mL; C: >25 μg/mL) | C (key: A: <1 μg/mL; B: 1-3 μg/mL; C: >3 μg/mL) | – |
| O=C(Nc1sccc1C(=O)N1CCN(C2CC2)CC1)c1nc2ccccc2s1 [Compound 256] | – | – | C (key: A: >50 μg/mL; B: 50-25 μg/mL; C: <25 μg/mL) | B (key: A: <5 μg/mL; B: 5-25 μg/mL; C: >25 μg/mL) | C (key: A: <1 μg/mL; B: 1-3 μg/mL; C: >3 μg/mL) | – |
| CCOC(=O)NC(=O)c1ccsc1NC(=O)c1cnc2cc[nH]c2c1 [Compound 355] | – | – | B (key: A: >50 μg/mL; B: 50-25 μg/mL; C: <25 μg/mL) | C (key: A: <5 μg/mL; B: 5-25 μg/mL; C: >25 μg/mL) | C (key: A: <1 μg/mL; B: 1-3 μg/mL; C: >3 μg/mL) | – |
| C[C@H]1COC2(CCN(c3nc(=O)c4cc(C(F)(F)F)cc([N+](=O)[O-])c4s3)CC2)O1 [BTZ043] | – | – | – | – | – | inhibition of conversion of DPR to DPA by DprE1 [8]: potently inhibit |
| CCOC(=O)NC(=O)c1ccsc1NC(=O)c1ccnc(NC(=O)C(C)(C)C)c1 [Compound 60] | > 50 | < 1 | – | – | – | MIC (Mtb [3]): > 25 mg/L; MIC (Mtb [4]): < 1 mg/L; CC50 (in vitro [5]): > 50 mg/L |
